Laboratory results reported in BindingDB's records for patent US12479845 (Hanmi Pharm. Co., 2025).

Molecular target: Lysine-specific histone demethylase 1A (Homo sapiens, UniProt O60341)
Experiment: Biochemical Analysis of LSD1 Histone Demethylase Inhibitor
Experimental: The biochemical inhibition activity of the synthesized compounds on LSD1 was measured. The activity measurement was performed using LSD1 fluorescence analysis kit (available from BPS Bioscience Co., Ltd., Catalog No: 50106). This analysis kit is designed to measure activity of LSD1 enzyme. H2O2 generated upon demethylation of Lys4 moiety of histone H3 by LSD1 is reacted with HRP/Amplex Red reagent to form fluorescent Resorufin, which is measured by this kit, thereby confirming demethylation.

IC50: 27 nM
Compound: CCN(CC)c1ccc(-n2c(-c3ccc(C#N)c(F)c3)nc3c(N4CCC[C@@H](N)C4)ccnc32)cc1 [US12479845, Example 21]
